Test system: 242566-281-R-J2-PDC complex spheroid viability
Assay: Anticancer human tumor 242566-281-R-J2-PDC patient-derived pancreatic carcinoma cell line growth inhibition [RAS]
Settings: for IC50: curve of first compound; for viability, T/C: stronger effect = lower value
How it was run: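 Tumour cells grown as complex spheroids with HUVEC endothelial cells and mesenchymal stem cells, treated with RAS pathway inhibitor combinations. Each agent spans half-log steps from near clinical Cmax, or 10 microM where Cmax is unknown.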

[1] = second compound 0.000949 µM, first compound 0.0316 µM
[2] = second compound 0.000949 µM, first compound 0.1 µM
[3] = second compound 0.000949 µM, first compound 0.316 µM
[4] = second compound 0.000949 µM, first compound 1 µM
[5] = second compound 0.000949 µM, first compound 3.16 µM
[6] = second compound 0.000949 µM, first compound 10 µM
[7] = second compound 0.003 µM, first compound 0.0316 µM
[8] = second compound 0.003 µM, first compound 0.1 µM
[9] = second compound 0.003 µM, first compound 0.316 µM
[10] = second compound 0.003 µM, first compound 1 µM
[11] = second compound 0.003 µM, first compound 3.16 µM
[12] = second compound 0.003 µM, first compound 10 µM
[13] = second compound 0.00949 µM, first compound 0.0316 µM
[14] = second compound 0.00949 µM, first compound 0.1 µM
[15] = second compound 0.00949 µM, first compound 0.316 µM
[16] = second compound 0.00949 µM, first compound 1 µM
[17] = second compound 0.00949 µM, first compound 3.16 µM
[18] = second compound 0.00949 µM, first compound 10 µM
[19] = second compound 0.03 µM, first compound 0.0316 µM
[20] = second compound 0.03 µM, first compound 0.1 µM
[21] = second compound 0.03 µM, first compound 0.316 µM
[22] = second compound 0.03 µM, first compound 1 µM
[23] = second compound 0.03 µM, first compound 3.16 µM
[24] = second compound 0.03 µM, first compound 10 µM
[25] = second compound 0.0949 µM, first compound 0.0316 µM
[26] = second compound 0.0949 µM, first compound 0.1 µM
[27] = second compound 0.0949 µM, first compound 0.316 µM
[28] = second compound 0.0949 µM, first compound 1 µM
[29] = second compound 0.0949 µM, first compound 3.16 µM
[30] = second compound 0.0949 µM, first compound 10 µM
[31] = second compound 0.3 µM, first compound 0.0316 µM
[32] = second compound 0.3 µM, first compound 0.1 µM
[33] = second compound 0.3 µM, first compound 0.316 µM
[34] = second compound 0.3 µM, first compound 1 µM
[35] = second compound 0.3 µM, first compound 3.16 µM
[36] = second compound 0.3 µM, first compound 10 µM
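Further: spheroids exposed to compound for 7 days before readout.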
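Wherever viability, T/C is given: 100% = DMSO vehicle control wells.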

SMILES: CCC(CC)c1cc(NC2CCC(N)C2)n2nccc2n1 (stereo unspecified) + CCn1c(-c2cc(N3CCN(C)CC3)cnc2C(C)OC)c2c3cc(ccc31)-c1csc(n1)CC(NC(=O)C1CC1C)C(=O)N1CCCC(N1)C(=O)OCC(C)(C)C2
- IC50 (second compound 0.000949 µM): 2620 nM
- IC50 (second compound 0.003 µM): 2040 nM
- IC50 (second compound 0.00949 µM): < 31.6 nM
- IC50 (second compound 0.03 µM): < 31.6 nM
- IC50 (second compound 0.0949 µM): < 31.6 nM
- IC50 (second compound 0.3 µM): < 31.6 nM
- viability, T/C [1]: 90.9%
- viability, T/C [2]: 88.3%
- viability, T/C [3]: 77.8%
- viability, T/C [4]: 90.1%
- viability, T/C [5]: 42.9%
- viability, T/C [6]: 1.28%
- viability, T/C [7]: 80.1%
- viability, T/C [8]: 74.2%
- viability, T/C [9]: 65.4%
- viability, T/C [10]: 74.9%
- viability, T/C [11]: 35.5%
- viability, T/C [12]: 1.04%
- viability, T/C [13]: 50.9%
- viability, T/C [14]: 39.1%
- viability, T/C [15]: 45.9%
- viability, T/C [16]: 45.8%
- viability, T/C [17]: 18.8%
- viability, T/C [18]: 1.43%
- viability, T/C [19]: 32.2%
- viability, T/C [20]: 29.8%
- viability, T/C [21]: 27.9%
- viability, T/C [22]: 29.8%
- viability, T/C [23]: 7.89%
- viability, T/C [24]: 2.28%
- viability, T/C [25]: 22.3%
- viability, T/C [26]: 21%
- viability, T/C [27]: 23.2%
- viability, T/C [28]: 24.5%
- viability, T/C [29]: 8.03%
- viability, T/C [30]: 1.49%
- viability, T/C [31]: 20.7%
- viability, T/C [32]: 19.7%
- viability, T/C [33]: 20.5%
- viability, T/C [34]: 20.9%
- viability, T/C [35]: 6.77%
- viability, T/C [36]: 1.47%

SMILES: CCc1c2c(nc3ccc(O)cc13)-c1cc3c(c(=O)n1C2)COC(=O)[C@]3(O)CC + CCn1c(-c2cccnc2C(C)OC)c2c3cc(ccc31)N1CCOC(CC(NC(=O)C(C(C)C)N(C)C(=O)C3(F)CCN(C(=O)C#CC(C)(C)N(C)C)CC3)C(=O)N3CCCC(N3)C(=O)OCC(C)(C)C2)C1
- IC50 (second compound 0.000949 µM): 18.1 nM
- IC50 (second compound 0.003 µM): 16.9 nM
- IC50 (second compound 0.00949 µM): 20.3 nM
- IC50 (second compound 0.03 µM): 20 nM
- IC50 (second compound 0.0949 µM): 18.8 nM
- IC50 (second compound 0.3 µM): 11 nM
- viability, T/C (second compound 0.000949 µM, first compound 0.000949 µM): 101%
- viability, T/C (second compound 0.000949 µM, first compound 0.003 µM): 92.3%
- viability, T/C (second compound 0.000949 µM, first compound 0.00949 µM): 59.5%
- viability, T/C (second compound 0.000949 µM, first compound 0.03 µM): 39.7%
- viability, T/C (second compound 0.000949 µM, first compound 0.0949 µM): 25.5%
- viability, T/C (second compound 0.000949 µM, first compound 0.3 µM): 11.6%
- viability, T/C (second compound 0.003 µM, first compound 0.000949 µM): 106%
- viability, T/C (second compound 0.003 µM, first compound 0.003 µM): 79.5%
- viability, T/C (second compound 0.003 µM, first compound 0.00949 µM): 63.7%
- viability, T/C (second compound 0.003 µM, first compound 0.03 µM): 37.4%
- viability, T/C (second compound 0.003 µM, first compound 0.0949 µM): 24.7%
- viability, T/C (second compound 0.003 µM, first compound 0.3 µM): 10.6%
- viability, T/C (second compound 0.00949 µM, first compound 0.000949 µM): 105%
- viability, T/C (second compound 0.00949 µM, first compound 0.003 µM): 76.1%
- viability, T/C (second compound 0.00949 µM, first compound 0.00949 µM): 68.5%
- viability, T/C (second compound 0.00949 µM, first compound 0.03 µM): 45%
- viability, T/C (second compound 0.00949 µM, first compound 0.0949 µM): 20.7%
- viability, T/C (second compound 0.00949 µM, first compound 0.3 µM): 11.8%
- viability, T/C (second compound 0.03 µM, first compound 0.000949 µM): 100%
- viability, T/C (second compound 0.03 µM, first compound 0.003 µM): 79.5%
- viability, T/C (second compound 0.03 µM, first compound 0.00949 µM): 73.9%
- viability, T/C (second compound 0.03 µM, first compound 0.03 µM): 38.3%
- viability, T/C (second compound 0.03 µM, first compound 0.0949 µM): 17.6%
- viability, T/C (second compound 0.03 µM, first compound 0.3 µM): 11.6%
- viability, T/C (second compound 0.0949 µM, first compound 0.000949 µM): 84.5%
- viability, T/C (second compound 0.0949 µM, first compound 0.003 µM): 77.8%
- viability, T/C (second compound 0.0949 µM, first compound 0.00949 µM): 68%
- viability, T/C (second compound 0.0949 µM, first compound 0.03 µM): 38.5%
- viability, T/C (second compound 0.0949 µM, first compound 0.0949 µM): 14.4%
- viability, T/C (second compound 0.0949 µM, first compound 0.3 µM): 10.3%
- viability, T/C (second compound 0.3 µM, first compound 0.000949 µM): 84.4%
- viability, T/C (second compound 0.3 µM, first compound 0.003 µM): 70.1%
- viability, T/C (second compound 0.3 µM, first compound 0.00949 µM): 56.5%
- viability, T/C (second compound 0.3 µM, first compound 0.03 µM): 25.4%
- viability, T/C (second compound 0.3 µM, first compound 0.0949 µM): 12.4%
- viability, T/C (second compound 0.3 µM, first compound 0.3 µM): 7.96%

SMILES: CC1(O)CCCC1n1c(=O)c(C(F)F)cc2cnc(NC3CCN(S(C)(=O)=O)CC3)nc21 (stereo unspecified) + CCn1c(-c2cc(N3CCN(C)CC3)cnc2C(C)OC)c2c3cc(ccc31)-c1csc(n1)CC(NC(=O)C1CC1C)C(=O)N1CCCC(N1)C(=O)OCC(C)(C)C2
- IC50 (second compound 0.000949 µM): 6350 nM
- IC50 (second compound 0.003 µM): 4930 nM
- IC50 (second compound 0.00949 µM): 31.6 nM
- IC50 (second compound 0.03 µM): < 31.6 nM
- IC50 (second compound 0.0949 µM): < 31.6 nM
- IC50 (second compound 0.3 µM): < 31.6 nM
- viability, T/C [1]: 85.7%
- viability, T/C [2]: 84%
- viability, T/C [3]: 72.8%
- viability, T/C [4]: 98.9%
- viability, T/C [5]: 98.1%
- viability, T/C [6]: 25.2%
- viability, T/C [7]: 73%
- viability, T/C [8]: 58.6%
- viability, T/C [9]: 64.7%
- viability, T/C [10]: 73.3%
- viability, T/C [11]: 82.5%
- viability, T/C [12]: 17.2%
- viability, T/C [13]: 43.7%
- viability, T/C [14]: 42.2%
- viability, T/C [15]: 49.5%
- viability, T/C [16]: 51.4%
- viability, T/C [17]: 53.2%
- viability, T/C [18]: 14.7%
- viability, T/C [19]: 25.7%
- viability, T/C [20]: 28.7%
- viability, T/C [21]: 30.8%
- viability, T/C [22]: 35.6%
- viability, T/C [23]: 30.7%
- viability, T/C [24]: 18.1%
- viability, T/C [25]: 23.1%
- viability, T/C [26]: 23.8%
- viability, T/C [27]: 22%
- viability, T/C [28]: 28.7%
- viability, T/C [29]: 22.5%
- viability, T/C [30]: 15.1%
- viability, T/C [31]: 18%
- viability, T/C [32]: 18.6%
- viability, T/C [33]: 20.5%
- viability, T/C [34]: 23.6%
- viability, T/C [35]: 26.8%
- viability, T/C [36]: 14.1%

— PubChem BioAssay AID2060910 (Molecular Pharmacology Branch, DTP, NCI, 2025)
